Data published in US11827596B2, “Thyromimetics” (Autobahn Therapeutics, Inc., priority 2018, dated 2023).

Columns and labels:
[1] = biological target: T1, TRβ (Homo sapiens, UniProt P10828); assay: Thyroid-hormone reporter-gene assay (Gal4-TR hybrid, luciferase), TRβ; type: cell-based; conditions: for T3-benchmarked selectivity index (T3-SI): EC50 (TRα)*T3-EC50 (TRβ)/EC50 (TRβ)*T3-EC50 (TRα), T3 in the same experiment; for EC50: HEK293-derived reporter cells, 24 hr incubation
T1 construct: expressed in transfected cells; host or cells: HEK293-derived reporter cells
T1 sequence (P10828 217-461 limits assumed): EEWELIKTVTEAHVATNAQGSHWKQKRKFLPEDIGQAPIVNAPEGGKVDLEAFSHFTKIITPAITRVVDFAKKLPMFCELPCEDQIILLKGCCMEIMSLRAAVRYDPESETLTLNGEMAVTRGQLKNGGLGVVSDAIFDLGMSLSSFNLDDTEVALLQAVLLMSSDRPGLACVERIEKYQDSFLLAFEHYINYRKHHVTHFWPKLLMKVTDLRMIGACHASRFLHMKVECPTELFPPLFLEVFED
Experimental: (§1) Reporter cells used in the assays express a TR-receptor hybrid (either TRα or […]) in which the native N-terminal DNA binding domain (DBD) has been replaced with that of the yeast Gal4 DBD. The reporter gene, firefly luciferase, is functionally linked to the Gal4 upstream activation sequence (UAS). Both cell lines were derived from human embryonic kidney (HEK293).
(§2) Step 1: A suspension of reporter cells was prepared in cell recovery medium containing 10% charcoal-stripped FBS, and dispensed into assay plates. The plates were pre-incubated for 6 hours in a cell culture incubator (37° C./5% CO2/85% humidity).
(§3) These Intermediate Stocks were subsequently diluted directly into compound screening medium containing 10% charcoal-stripped FBS to generate “2×-concentration” treatment media (containing 0.2, 0.4 or 0.8% DMSO).
(§4) Step 3: At the end of the pre-incubation period, culture media were discarded from the assay plates, and all wells received 100 μl of compound screening medium. 100 μl of each of the previously prepared “2×-concentration” treatment media were dispensed into duplicate assay wells, thereby achieving the desired final treatment concentrations. The final concentration of DMSO in all assay wells was 0.1, 0.2 or 0.4%. Assay plates were incubated for 24 hr in a cell culture incubator (37° C./5% CO2/85% humidity).
(§5) Step 4: At the 24 h assay endpoint, treatment media were discarded and 100 μl/well of luciferase detection reagent was added. Relative luminometer units (RLUs) were quantified from each assay well.

[2] = biological target: T2, TRα (Homo sapiens, UniProt P10827); assay: Thyroid-hormone reporter-gene assay (Gal4-TR hybrid, luciferase), TRα; type: cell-based; conditions: HEK293-derived reporter cells, 24 hr incubation
T2 construct: The firefly luciferase reporter under the Gal4 UAS is a separate reporter gene
T2 sequence (P10827 163-410 isoform P10827-2 limits assumed): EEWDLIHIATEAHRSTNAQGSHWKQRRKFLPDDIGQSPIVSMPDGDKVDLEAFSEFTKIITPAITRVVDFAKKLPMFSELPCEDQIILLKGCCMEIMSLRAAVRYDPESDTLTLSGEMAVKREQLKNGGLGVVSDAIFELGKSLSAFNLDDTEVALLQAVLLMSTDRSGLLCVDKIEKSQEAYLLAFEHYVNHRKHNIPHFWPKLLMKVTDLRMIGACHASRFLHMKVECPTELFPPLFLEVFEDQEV
Experimental: as §1, §2, §3, §4, §5

[3] = Tissue distribution study, brain concentration of parent acid after prodrug dosing; type: in vivo, male C57Bl/6 mice; conditions: 1 hr after SC dosing (0.1 mg/kg) of the prodrug; parent acid measured; compared to dichloro-prodrug and Sob-AM2 (FIG. 2)
Experimental: For tissue concentration studies in male C57Bl/6 mice, test compounds are formulated as NMP/solutol/PBS solution, at a concentration of 0.05 mg/mL and dosed at 2 mL/kg with the targeted dose of 0.100 mg/kg via SC injection or oral dosing. […] Tissue homogenates and plasma concentrations of test compounds are determined using LC-MS/MS with lower limits of quantitation of 0.0200 ng/mL or 0.100 ng/g. The pharmacokinetic parameters are determined by non-compartmental methods using WinNonlin.
FIG. 2 depicts brain levels of Compound 2 recorded 1 hr after SC dosing (0.1 mg/kg) of the corresponding prodrug Compound 3.

T3-benchmarked selectivity index (T3-SI) [1]	EC50 [1] [nM]	EC50 [2] [nM]	functional EC50 (TRβ) ([1]; TR screening)	SMILES	brain concentration of the parent acid [3]
++ (3×<T3-SI≤30×)	10 to 100	100 to 1000	–	CCc1cc(OCC(=O)O)cc(C)c1Cc1ccc(O)c(C(C)C)c1 [Compound 16, 2-(3-ethyl-4-(4-hydroxy-3-isopropylbenzyl)-5-methylphenoxy)acetic acid]	–
++ (3×<T3-SI≤30×)	10 to 100	100 to 1000	–	Cc1cc(OCC(=O)O)cc(C(F)(F)F)c1Cc1ccc(O)c(C(C)C)c1 [Compound 11, 2-(4-(4-hydroxy-3-isopropylbenzyl)-3-methyl-5-(trifluoromethyl)phenoxy)acetic acid]	–
++ (3×<T3-SI≤30×)	10 to 100	10 to 100	–	CC(C)c1cc(Cc2c(Cl)cc(OCC(=O)O)cc2C(F)(F)F)ccc1O [Compound 18, 2-(3-chloro-4-(4-hydroxy-3-isopropylbenzyl)-5-(trifluoromethyl)phenoxy)acetic acid]	–
++ (3×<T3-SI≤30×)	< 10	10 to 100	–	CC(C)c1cc(Cc2c(Cl)cc(OCC(=O)O)cc2C(C)C)ccc1O [Compound 31, 2-(3-chloro-4-(4-hydroxy-3-isopropylbenzyl)-5-isopropylphenoxy)acetic acid]	–
++ (3×<T3-SI≤30×)	10 to 100	100 to 1000	–	C=C(C)c1cc(OCC(=O)O)cc(Cl)c1Cc1ccc(O)c(C(C)C)c1 [Compound 30, 2-(3-chloro-4-(4-hydroxy-3-isopropylbenzyl)-5-(prop-1-en-2-yl)phenoxy)acetic acid]	–
++ (3×<T3-SI≤30×)	10 to 100	100 to 1000	–	C=C(C)c1cc(OCC(=O)O)cc(C)c1Cc1ccc(O)c(C(C)C)c1 [Compound 20, 2-(4-(4-hydroxy-3-isopropylbenzyl)-3-methyl-5-(prop-1-en-2-yl)phenoxy)acetic acid]	–
++ (3×<T3-SI≤30×)	10 to 100	100 to 1000	–	CCc1cc(OCC(=O)O)cc(Cl)c1Cc1ccc(O)c(C(C)C)c1 [Compound 8, 2-(3-chloro-5-ethyl-4-(4-hydroxy-3-isopropylbenzyl)phenoxy)acetic acid]	–
++ (3×<T3-SI≤30×)	100 to 1000	> 1000	–	C/C=C/c1cc(OCC(=O)O)cc(C)c1Cc1ccc(O)c(C(C)C)c1 [Compound 23, (E)-2-(4-(4-hydroxy-3-isopropylbenzyl)-3-methyl-5-(prop-1-enyl)phenoxy)acetic acid]	–
++ (3×<T3-SI≤30×)	10 to 100	10 to 100	equipotent with the di-bromo analog	Cc1cc(OCC(=O)O)cc(Br)c1Cc1ccc(O)c(C(C)C)c1 [Compound 5, 2-(3-bromo-4-(4-hydroxy-3-isopropylbenzyl)-5-methylphenoxy)acetic acid]	–
++ (3×<T3-SI≤30×)	100 to 1000	100 to 1000	–	Cc1cc(OCC(=O)O)cc(Cl)c1Cc1ccc(O)c(C(C)C)c1 [Compound 2, 2-(3-chloro-4-(4-hydroxy-3-isopropylbenzyl)-5-methylphenoxy)acetic acid]	–
++ (3×<T3-SI≤30×)	10 to 100	10 to 100	–	Cc1cc(OCC(=O)O)cc(C(C)C)c1Cc1ccc(O)c(C(C)C)c1 [Compound 21, 2-(4-(4-hydroxy-3-isopropylbenzyl)-3-isopropyl-5-methylphenoxy)acetic acid]	–
++ (3×<T3-SI≤30×)	100 to 1000	100 to 1000	–	CCCc1cc(OCC(=O)O)cc(C)c1Cc1ccc(O)c(C(C)C)c1 [Compound 25, 2-(4-(4-hydroxy-3-isopropylbenzyl)-3-methyl-5-propylphenoxy)acetic acid]	–
++ (3×<T3-SI≤30×)	100 to 1000	> 1000	–	Cc1cc(OCC(=O)O)cc(C2CC2)c1Cc1ccc(O)c(C(C)C)c1 [Compound 27, 2-(3-cyclopropyl-4-(4-hydroxy-3-isopropylbenzyl)-5-methylphenoxy)acetic acid]	–
–	–	–	–	CNC(=O)COc1cc(C)c(Cc2ccc(O)c(C(C)C)c2)c(Cl)c1 [Compound 3, 2-(3-chloro-4-(4-hydroxy-3-isopropylbenzyl)-5-methylphenoxy)-N-methylacetamide]	dramatic increase in brain concentration of the parent acid
